{"source": "patent US20230263800A1", "about": "“COMPOSITIONS AND METHODS TO PROMOTE THYMIC FUNCTION” (Fred Hutchinson Cancer Center, priority 2020, published 2023)", "key": {"GPR39": {"molecular_target": "T1, GPR39 (Mus musculus, UniProt Q5U431)", "T1 construct": "endogenous in cells; host or cells: thymic endothelial cells (ECs / exECs)", "T1 sequence (Q5U431 1-456)": "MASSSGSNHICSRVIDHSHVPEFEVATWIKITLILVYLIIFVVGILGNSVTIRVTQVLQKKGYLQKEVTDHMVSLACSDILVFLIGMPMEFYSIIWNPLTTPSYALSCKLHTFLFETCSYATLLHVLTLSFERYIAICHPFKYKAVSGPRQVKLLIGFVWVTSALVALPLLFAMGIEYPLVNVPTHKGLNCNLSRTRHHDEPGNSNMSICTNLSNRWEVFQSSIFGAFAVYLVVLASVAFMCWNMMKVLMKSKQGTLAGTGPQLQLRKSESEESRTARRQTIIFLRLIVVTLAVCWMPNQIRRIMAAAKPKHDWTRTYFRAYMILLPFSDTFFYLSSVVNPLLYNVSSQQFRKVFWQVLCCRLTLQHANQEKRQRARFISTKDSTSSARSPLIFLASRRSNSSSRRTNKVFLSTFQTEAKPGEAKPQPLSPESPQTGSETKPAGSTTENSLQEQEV", "test": "Ca2+ live imaging of ECs with Fluo3-AM", "format": "cell-based", "details": "20 mins post stimulation, AUC", "excerpt": "FIGS. 20A-20D. […] (20D) GPR39 cell surface levels in thymocytes and TECs at d0. Graphs represent mean+/−SEM."}, "[1]": {"system": "C57BL/6 mice given sublethal TBI", "test": "Thymic regeneration after sublethal total body irradiation (SL-TBI, 550 cGy)", "format": "in vivo, mouse", "details": "TC-G 1008 20 mg/mouse/day by guided feeding day 0 to day 10, 550 cGy TBI, day 10", "excerpt": "FIGS. 4A-4G. […] (4A, 4B) 6-8 week-old female C57BL/6 mice were fed a normal or ZD diet for 21 days at which point mice were given a sublethal dose of total body irradiation (TBI, 550 cGy). (4A) Total thymic cellularity at days 7 and 14 after TBI (n=10/treatment/timepoint across two independent experiments). (4B) Total number of CD45-EpCAM^+MHCII^+UEA1^loLy51^hi (cTECs) and CD45^− EpCAM^+MHCII^+UEA1^hi Ly51^lo (mTECs) at days 7 and 14 after TBI (n=10/treatment/timepoint across two independent experiments). (4C) 6-12 week-old female BALB.B mice were fed with normal or ZD diet for 21 days, at which point mice were given a lethal dose of TBI (900cGy) and 10×10^6 T cell-depleted bone marrow (BM) cells from 6-8 week-old C57BL/6. One cohort also received 2×10^6 T cells to induce graft versus host disease (GVHD); thymic cellularity was quantified on day 14 after allogeneic hematopoietic stem cell transplant (allo-HCT, n=5-6/group). (4D) 6-8 week-old female C57BL/6 mice were fed with normal or ZD diet for 21 days at which point mice were given 550 cGy TBI and total thymus cellularity quantified on day 14. […] (4E) Total thymic cellularity. (4F) Total number of cTECs and mTECs. (4G) Total number of Ki-67+ thymic endothelial cells (TECs). […]"}, "[2]": {"system": "Male C57BL/6 mice aged 2 mo, 12 mo or 19 mo", "test": "Thymus cellularity in mice aged 2, 12 or 19 months", "format": "in vivo, mouse", "details": "TC-G 1008 20 mg/kg/day for 5 days, day 7, versus untreated controls", "description": "FIG. 14. Male C57BL/6 mice aged 2 mo, 12 mo or 19 mo were given the GPR39 agonist TC-G 1008 (20 mg/kg/day) for 5 days. Thymus cellularity was measured at day 7."}, "Bmp4 in exECs": {"system": "Bmp4 in exECs", "test": "Bmp4 expression by qPCR in exECs", "format": "cell-based, mouse", "details": "TC-G 1008 25 μM, 24 hours, compared with ZnSO4 100 μM"}, "[3]": {"system": "mice given lethal TBI and T cell depleted BM (allo-HCT)", "test": "Thymic reconstitution after T cell-depleted allogeneic HCT", "format": "in vivo", "details": "BALB.B recipients, 900 cGy, TC-G 1008 20 mg/mouse/day day 0-8, 10 and 12, day 14"}}, "note": "Entries after “also recorded” stand apart in the source; their conditions may differ.", "data": [{"smiles": "CNc1nc(NCc2ccc(NS(C)(=O)=O)cc2Cl)cc(-c2ccccn2)n1", "note": "[TC-G 1008, N-[3-chloro-4-[[[2-(methylamino)-6-pyridin-2-ylpyrimidin-4-yl]amino]methyl]phenyl]methanesulfonamide]", "values": [{"measurement": "Ca2+ influx", "setting": "GPR39", "value": "incudes Ca2+ influx"}, {"measurement": "thymic function (thymus cellularity)", "setting": "[1]", "value": "significantly improved thymic function"}, {"measurement": "thymus cellularity", "setting": "[2]", "value": "significantly improved thymus cellularity"}, {"measurement": "Bmp4 expression", "setting": "Bmp4 in exECs", "value": "induced expression of Bmp4, greater than Zn alone; also recorded: induces expression of BMP4"}, {"measurement": "thymic function", "setting": "[3]", "value": "significantly improved thymic function"}]}]}
